Holding throughout (assay): growth of human tumour cells (NCI), 48 h
The subject of test [1] is KM12 colon.
The subject of test [2] is NCI-H460 lung.
Test [3] relates to SF-295 CNS.
For test [4], the system named is SK-MEL-2 melanoma.
The subject of test [5] is UACC-62 melanoma.
Test [6] relates to 786-0 renal.
Test [7] deals with BT-549 breast.
For test [8], the system named is SK-MEL-5 melanoma.
In test [9] the test system is HOP-92 NSCLC.
For test [10], the system named is RXF 393 renal.
Test [11] has as its system NCI/ADR-RES ovarian.

Several values for one entry are separate records, joined by “and”; a condition that tells them apart may be missing. Equal values may be shown once.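 Following 48 hours of exposure in 96-well plates, responses at five concentrations were used to interpolate endpoints linearly. GI50: concentration for 50% inhibition of growth. At the TGI there is no net growth.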

Turning to `N#CN=C(N(Cc1ccccc1)Cc1ccccc1)N(Cc1ccccc1)Cc1ccccc1`, the TGI in test [1], in test [2], in test [3], in test [4] and in test [5] was greater than 100 µM each time.
As to `O=C1C(=Cc2ccc(O)cc2)N=C(c2ccccc2)N1n1c(-c2ccccc2)nc2ccccc2c1=O`, the TGI in test [6], in [7], in test [1], in test [3], in test [8] and in test [5] was greater than 100 µM in each case.
Turning to `CCN(CC)CCC(=O)Nc1ccc2c(c1)C(=O)c1ccc(NC(=O)CCN(CC)CC)cc1C2=O`, the TGI in [6] came out at 8.42 µM; in test [9] it was 30 µM; in [1], 4.57 µM; in test [2], 2.74 µM; in test [10], 9.27 µM; in test [3] it was 24 µM. The values for the TGI in [4], in test [8] and in test [5] were 19 µM, 19.8 µM and 22.3 µM, respectively.
Consider `Oc1cc2c3c(c1)c1cc4c(cc1c[n+]3CC2)OCO4`, for which the TGI in test [6] was greater than 24.4 µM; in test [7] it was 8.1 µM; in [9], greater than 75.6 µM; in test [1], 13.9 µM; in [2], greater than 23.9 µM; in [10], greater than 68.8 µM. Moreover, the TGI in test [3] was greater than 100 µM; in test [4], greater than 84.5 µM; in test [8] it was greater than 100 µM; in [5] it was 28.8 µM.
As to `COc1cc([C@@H]2c3cc4c(cc3[C@@H](Nc3ccc([N+](=O)[O-])cc3C(=O)c3ccccc3)[C@H]3COC(=O)[C@H]23)OCO4)cc(OC)c1OC`, the TGI in [6], in [9], in [1], in test [11], in test [10] and in test [3] was greater than 100 µM each time. Besides, the TGI in [4] and in test [5] was greater than 100 µM in each case.
With `COc1nc(N)c(C(=O)CCl)c(=O)n1C`, the TGI came out at 16.1 µM in [9]; 30.4 µM in test [1]; 39.5 µM in test [2]; 20.6 µM in [10]; 29.4 µM in test [3]; 25.1 µM in [4]. The compound also yielded a TGI in test [8] of 28.5 µM.
Consider `O=[N+]([O-])/C(C(Cl)=C(Cl)Cl)=C(\SCc1ccccc1)N1CCCCC1`, for which the TGI in test [6] worked out at 36.3 µM; in test [9], 0.529 µM; in test [1], 87.1 µM; in [2], 78 µM; in [10], 62.6 µM; in [3], 81.9 µM. Further, the figures for the TGI in [4], in test [8] and in test [5] were 55 µM, 31.4 µM and 72 µM, respectively.
With `CC(=O)NC1=C(NCCC(C)C)C(=O)c2ccccc2C1=O`, the TGI in [6], in test [9], in test [1], in test [2], in [10] and in test [3] was greater than 50 µM throughout. Besides, the TGI in test [4], in [8] and in [5] was greater than 50 µM each time.
For `O=C(Nc1ccc(C2=NCCN2)cc1)c1cncc(C(=O)Nc2ccc(C3=NCCN3)cc2)c1`, the TGI in test [9], in test [1], in test [2], in test [11], in test [10] and in test [3] was greater than 100 µM each time. In addition, the TGI in [4], in [8] and in test [5] was greater than 100 µM each time.
`Cc1ccc(SCC(CSCCO)OCn2cnc3c2NC(N)=NC32OCCO2)cc1` (stereo not drawn): the TGI in [6], in [9], in test [2], in test [11], in [10] and in test [3] was greater than 100 µM each time. In addition, the TGI in test [4] and in test [8] was greater than 100 µM in each case.
Consider `Cc1cccc2c(=O)cc(-c3ccccc3)[nH]c12`, for which the TGI in test [6] was greater than 100 µM; in test [2], greater than 100 µM; in test [10] it was 38.2 µM; in test [3], 18.7 µM; in [4], greater than 100 µM; in test [8], 78.4 µM. This compound also showed a TGI in test [5] greater than 100 µM.
In the case of `CCC1(O)CC2CC(=O)OC2C1O` (stereo not drawn), the TGI in test [6], in test [9], in [1], in test [2], in [11] and in test [10] was greater than 100 µM in each case. For the same compound, the TGI in test [3], in [4], in test [8] and in test [5] was greater than 100 µM throughout.
For the compound `CC1(C)N=C(/C(Cl)=[N+](/[O-])C(=O)c2ccc(F)cc2)C(C)(C)N1O`, the TGI is 27.7 µM in test [6]; 40 µM in test [9]; 67.8 µM in test [1]; greater than 100 µM in test [2]; greater than 100 µM in [11]; 28.8 µM in test [10]. Also, the TGI in test [3] was 78.4 µM; in test [4], 40.3 µM; in test [8] it was 30.4 µM; in [5] it was 33 µM.
With `CCOC(=O)C1=C(C)NC(=S)NC1c1ccccc1` (stereo not drawn), the TGI in [6], in [9], in test [1], in test [2], in test [10] and in test [3] was greater than 100 µM throughout. For the same compound, the TGI in test [4], in [8] and in [5] was greater than 100 µM in each case.
Turning to `O=C(Cc1cccs1)N[C@@H]1C(=O)N2C(C(=O)OC(c3ccccc3)c3ccccc3)=C(CO)CS[C@H]12`, the TGI in [6], in [9], in test [1], in test [2], in [11] and in test [10] was greater than 100 µM each time. Besides, the TGI in test [3], in [4], in test [8] and in [5] was greater than 100 µM each time.
As to `Cc1cn(C2CC(N(O)C(N)=O)C(CO)O2)c(=O)[nH]c1=O` (stereo not drawn), the TGI in test [6], in [9], in [1], in test [11], in [10] and in test [3] was greater than 100 µM throughout. The TGI in test [4], in test [8] and in test [5] was greater than 100 µM each time.
Regarding `Brc1ccc(N=c2nc3ccccn3n3nc(-c4ccccc4)cc23)cc1`, the TGI was 65.2 µM in [6]; 87.2 µM in test [9]; greater than 100 µM in test [1]; greater than 100 µM in test [2]; 51.1 µM in test [10]; greater than 100 µM in test [3]. The results for the TGI in test [4], in [8] and in test [5] were greater than 100 µM, greater than 100 µM and 63.3 µM, respectively.
`O=C1c2ccccc2C2C1N2C(=O)C(F)(F)F` (stereo not drawn): the TGI in [6], in [9], in test [1], in test [2], in [10] and in test [3] was greater than 100 µM in each case. Besides, the TGI in test [4], in test [8] and in test [5] was greater than 100 µM in each case.
Consider `O=C1CCC23CC(C=CC=C12)n1c(=O)n(-c2ccccc2)c(=O)n13` (stereo not drawn), for which the TGI is greater than 100 µM in test [9]; greater than 100 µM in [1]; greater than 100 µM in test [2]; greater than 81.2 µM in test [11]; greater than 100 µM in [10]; greater than 100 µM in test [3]. The TGI in test [4], in [8] and in test [5] was greater than 100 µM throughout.
Turning to `COc1ccc2c(=O)c(O)c(-c3ccc(OC)c(OC)c3)oc2c1`, the TGI in [9] was 9.17 µM; in test [2], greater than 100 µM; in test [11], 8.25 µM; in test [3], 33.1 µM; in [8] it was greater than 100 µM; in [5], greater than 100 µM.
As to `CC(=O)Nc1ccc(-c2nnc(SCC(=O)Nc3ccc([N+](=O)[O-])cc3)o2)cc1`, the TGI came out at 23.7 µM in test [6]; 37.7 µM in test [9]; 27.7 µM in test [1]; 29.1 µM in test [2]; 27.9 µM in test [10]; 27.4 µM in test [3]. Also, the TGI in test [4] was 33.3 µM; in test [8] it was 25.9 µM; in test [5], 21.5 µM.
For the compound `C[C@]12CC[C@H](O)CC1=CC[C@@H]1C2CC[C@]2(C)C(=O)N(N)C(=O)CC12` (stereo partly drawn), the TGI in test [6], in test [9], in test [1], in test [2], in test [10] and in [3] was greater than 100 µM throughout. Also, the TGI in test [4], in test [8] and in test [5] was greater than 100 µM throughout.
For the compound `COc1ccc(C2c3cc4c(cc3OC(NNS(=O)(=O)c3ccc(C)cc3)C2C)OCO4)cc1` (stereo not drawn), the TGI was greater than 100 µM in test [6]; greater than 100 µM in test [7]; 85.3 µM in [9]; greater than 100 µM in test [1]; greater than 100 µM in test [2]; greater than 100 µM in [10]. Besides, the TGI in [3], in [4], in [8] and in [5] was greater than 100 µM in each case.
On to `CCCNC1=C2CC(C)CC(OC)[C@@H](O)[C@H](C)/C=C(\C)C(OC(N)=O)C(OC)/C=C\C=C(/C)C(=O)NC(=CC1=O)C2=O` (stereo partly drawn), for which the TGI in test [6] is greater than 100 µM; in [7] it was 42.1 µM; in test [1], 0.673 µM and 0.727 µM; in test [2], 29.4 µM; in [10], 48.7 µM; in test [3], 19.9 µM. Also, the TGI was determined as 31.4 µM in [4], 18.3 µM in [8] and 41.9 µM in test [5]. Further, the GI50 is 16.8 µM in test [9]; 0.0239 µM in [1]; 0.0541 µM in test [2]; 13.8 µM in test [10]; 13.1 µM in test [4]; 0.0343 µM in test [8]. Also, the GI50 in test [5] was 0.253 µM.
`CNS(=O)(=O)NNS(=O)(=O)c1ccc2ccccc2c1`: the TGI in test [6], in test [1], in test [2], in test [3], in test [4] and in test [8] was greater than 100 µM throughout. Further, the TGI in test [5] was greater than 100 µM.
In the case of `CCC12C=CCN3CCC4(C(=C(C(=O)OC)[C@@H]1O)Nc1ccccc14)C32` (stereo partly drawn), the TGI worked out at 3.07 µM in test [6]; 4.16 µM in test [9]; 3.19 µM in test [1]; 3.71 µM in test [2]; 2.65 µM in test [10]; 5.7 µM in [3]. In addition, the TGI in test [4] came out at 3.84 µM; in [8], 3.45 µM; in test [5] it was 4.76 µM.
With `O=C(O)c1cccc2c1/C(=N/Nc1ccccc1)CC2`, the TGI in test [6], in test [9], in [1], in test [2], in test [11] and in test [10] was greater than 100 µM in each case. For the same compound, the TGI in test [3], in test [4] and in test [8] was greater than 100 µM each time.
In the case of `N.N.N.N.O=[N+]([O-])[O-].[Co+3].[N-]=[N+]=[N-].[N-]=[N+]=[N-]`, the TGI in [6], in test [9], in [1], in test [2], in test [3] and in [4] was greater than 100 µM throughout. The TGI in test [8] and in [5] was greater than 100 µM in each case.
Take `[N-]=[N+]=Nc1cc(=O)oc2ccccc12`: the TGI in test [6], in test [1], in test [2], in test [10], in [3] and in test [4] was greater than 100 µM each time. Moreover, the TGI in test [8] and in test [5] was greater than 100 µM each time.
